# Data: PMC11253633, “Robust leishmanicidal upshot of some new diphenyl triazine-based molecules” (RSC Advances, 2024)
# “Also recorded” adds a separate entry of the source.
# Key:
# L. infantum = system: L. infantum; design: method as in PMID 30817917; conditions: cited from earlier work
# L. amazonensis = system: L. amazonensis; design: method as in PMID 30817917; conditions: cited from earlier work
# [1] = system: L. donovani promastigotes; experiment: Dose-dependent anti-promastigote activity and determination of IC50 (MTT); type: cell-based; conditions: Leishmania donovani, 72 h, 3 days at 26 °C
# Procedure: MTF was used as a standard antileishmanial drug control. The cell viability was evaluated (by MTT Assay) and the mean percentage viability was calculated as follows: Mean cell number of treated parasites/mean cell number of untreated parasites × 100. The 50 and 90% inhibitory concentration (IC50) i.e., the concentration of drugs that decreased the cell growth by 50 and 90% respectively, was determined by graphical extrapolation after plotting the graph of percentage viability vs. concentration of the drug.[31]
# Parasite viability was not affected by DMSO (0.2%, data not shown) used as solvent control.[33]
# [2] = system: L. donovani promastigotes; experiment: Determination of promastigote cellular morphology (light microscopy); type: cell-based, Leishmania donovani; conditions: 25, 50 and 100 μM, 72 h, light microscopy 40×
# Procedure: For the evident of morphological changes, the promastigotes (Fig. 3 (C to L)) were incubated in presence of compound T7, T4 and control Ampho B with the different concentration 25 μM, 50 μM, 100 μM shown in (Fig. 3C to L) were analysed by light microscopy (40×magnification) compared to untreated cells (Fig. 4A).
# Fig. 4 Morphological Analysis of promastigote stage cells treated with compound T4 and MTF, compared to the untreated control (A) and DMSO treated control (B). Exponential-phase promastigotes (1 × 10^6 cells per mL) were incubated with 25 μm, 50 μm and 100 μm and analysed by light microscopy (40× magnification). (A) Untreated control (B) DMSO Treated cells (C–E) Ampho B, (F–H) T4 and T7 (I–K) at 25, 50, and 100 μM respectively. Scale bar in all is 10 μm.
# Variations in the cellular morphology of Leishmania parasites due to the treatment with compounds T4 and T7 was detected microscopically. Briefly, the promastigotes (1× 10^6 cells per mL) were incubated in the absence or presence of test compounds and MTF and AmphoB for 72 h with different concentrations and observed under 40× objective of a phase-contrast microscope. […] Data were recorded by using NIS-Elements imaging software.[32]
# [3] = system: Human macrophage THP-1 cell line; experiment: Cytotoxicity assay on THP-1 cell line (MTT); type: cell-based; conditions: 3.125–100 μM
# Procedure: The cell lines were incubated for 48 h at 37 °C in a CO2 incubator with increasing concentrations of test compounds and viability was ascertained. Each point or bar corresponds to the mean ± SEM of triplicate samples and is representative of one of three independent experiments.
# THP-1 human monocytic cells were grown at 37 °C in medium RPMI-1640 (pH 7.4, Sigma-Aldrich, St. Louis, MO, USA) supplemented with 10% heat-inactivated FBS for 48 to 72 h in a humidified atmosphere of 5% CO2 and sub-cultured in fresh RPMI-1640 medium at an average density 2 × 10^5 cells per mL (Sharma et al. 2023).[30]
# Human macrophage THP-1 cell line of 0.5 × 10^6 cells per mL seeded in RPMI-1640 medium (Sigma-Aldrich, USA) supplemented with 10% FBS (GIBCO) in presence of 5% CO2 at 37 °C in triplicate in 96 well culture plate. The cells were treated with two-fold serially diluted concentrations (100–3.125 μM) of the candidate molecules for 72 h. The IC50 was calculated using MTT assay (Sharma et al. 2023).[30]
# [4] = system: L. donovani promastigotes; experiment: Anti-leishmanial screening against L. donovani promastigotes at a single concentration (MTT); type: cell-based, Leishmania donovani; conditions: 72 h at 26 °C, MTT
# Procedure: Each candidate was evaluated for its in vitro activity against reference strain (MHOM/IN/83/AG83) of extracellular promastigotes and intracellular amastigotes of L. donovani.
# Promastigotes were routinely cultured at 26 °C in medium M199 supplemented with 10% heat inactivated fetal bovine serum (FBS, Gibco Laboratories, Mumbai, India), penicillin 100 (IU mL^−1), streptomycin (100 μg mL^−1). Log phase promastigotes were sub-cultured every 72–96 h, the inoculum being 2 × 10^6 cells per mL.[29]
# The triazin hybrids series was evaluated for their antileishmanial ability against L. donovani promastigotes in vitro. Promastigotes of L. donovani (1× 10^6 cells per mL) in M199 medium were incubated at 26 °C for 72 h with each compound at a concentration of 100 μM. Miltefosine (MTF) was used as a reference drug, 0.2% DMSO as solvent control. Parasites with media alone were taken as control. Parasite viability was achieved by MTT assay after 72 h (Sharma et al. 2023).[30]
# L. donovani amastigotes = experiment: Anti-amastigote assay in infected THP-1 macrophages (Giemsa); type: cell-based, Leishmania donovani; conditions: for IC50: infected THP-1 macrophages, 72 h
# Procedure: To evaluate the anti-leishmanial effect of the compound T4 and T7 on intracellular L. donovani parasites, macrophage was infected with stationary -phase L. donovani for 6 h. The cells were then washed with saline to remove any non-internalised parasites. To assess the effect of compounds T4 and T7 on intracellular parasites at early stages of infection, macrophages were subsequently treated with T4 and T7 at concentrations of 100, 50, 25, 12.5, or 6.25 μM (refer to Table 3 and Fig. 7) for 6, 24, or 48 hours.
# THP-1 cells (5 × 10^5 cells per mL) were cultivated in RPMI-1640 media (Roswell Park Memorial Institute 1640) (Sigma-Aldrich, USA), supplemented with 10% fetal calf serum and maintained at 37 °C with 5% CO2 using phorbol ester as the inducer. These cells were added on circular coverslips (1 × 10^6 cells per mL). Promastigotes of L. donovani were introduced at 1 : 20 ratio. Treatment of the samples was carried out at doses of 100, 50, 25, 12.5, 6.25 and 3.125 μM/72 h. After being taken off, the coverslips were stained with Giemsa. The rate of macrophage infection was then ascertained.
# promastigote = system: promastigote; design: method as in PMID 29702355; conditions: read-out: IC50 against promastigote; cited from earlier work
# amastigote = system: amastigote; design: method as in PMID 29702355; conditions: read-out: IC50 against amastigote; cited from earlier work
structure (smiles),measurement,setting,value
"CN(C)c1ccnc2cc(Cl)ccc12 [7-chloro-N, N-dimethylquinolin-4-amine]",selectivity index against the axenic amastigotes,L. infantum; L. infantum axenic amastigotes,137.6
same,selectivity index against the promastigotes,L. infantum; L. infantum promastigotes,154.6
same,selectivity index against the axenic amastigotes,L. amazonensis; L. amazonensis axenic amastigotes,74.3
same,selectivity index against the promastigotes,L. amazonensis; L. amazonensis promastigotes,86.4
"COc1ccc(C(=O)CCSc2nnc(-c3ccccc3)c(-c3ccccc3)n2)cc1OC [T4, 1-(3,4-Dimethoxyphenyl)-3-((5,6-diphenyl-1,2,4-triazin-3-yl)thio)propan-1-one]",IC50,[1],1.07 µM
same,melting point,,210 to 212 °C
same,Cellular morphological alterations in promastigotes (in words),[2],loss of flagella
same,Cytotoxicity on THP-1 human macrophages (in words),[3],nontoxic; also recorded: no adverse effects; also recorded: Absence of adverse toxicity
same,% Inhibition of L. donovani promastigotes,[4]; 100 μM,99.67%
same,inhibition at 100 µM,"[4]; Leishmania donovani, 72 h",> 90%
same,Percentage reduction of parasites (amastigote),L. donovani amastigotes; 6.25 μM,66%
same,Percentage reduction of parasites (amastigote),L. donovani amastigotes; 12.5 μM,68.80%
same,Percentage reduction of parasites (amastigote),L. donovani amastigotes; 25 μM,70%
same,Percentage reduction of parasites (amastigote),L. donovani amastigotes; 50 μM,74%
same,Percentage reduction of parasites (amastigote),L. donovani amastigotes; 100 μM,78.0%
same,Inhibitory activity against amastigotes (in words),"L. donovani amastigotes; 100–6.25 μM, infected macrophages",good inhibitory activity; also recorded: capable of inhibiting the growth
same,IC50,"L. donovani amastigotes; Leishmania donovani, THP-1, 72 h",5.18 µM
same,IC50,L. donovani amastigotes,7.19 µM
Clc1cc(Cl)ncn1 [compound 5],IC50,promastigote,< 25 µM
same,IC50,amastigote,< 25 µM
